According to ChEMBL document CHEMBL1201862, “PubChem BioAssay data set” (2004):
Active and inactive are the calls of the source. Rule as the data show it, for most assays here: actives have a measured EC50 and inactives only a lower limit.

Assays:
[1] = target: T1, Corticotropin-releasing factor receptor 2/Corticotropin-releasing factor-binding protein (Homo sapiens, UniProt P24387+Q13324); experiment: Dose Response confirmation of uHTS hits for small molecule antagonists of the CRF-binding protein and CRF-R2 receptor complex.; assay type: functional; settings: read-out: IC50_Mean
T1 sequence (Q13324 whole entry): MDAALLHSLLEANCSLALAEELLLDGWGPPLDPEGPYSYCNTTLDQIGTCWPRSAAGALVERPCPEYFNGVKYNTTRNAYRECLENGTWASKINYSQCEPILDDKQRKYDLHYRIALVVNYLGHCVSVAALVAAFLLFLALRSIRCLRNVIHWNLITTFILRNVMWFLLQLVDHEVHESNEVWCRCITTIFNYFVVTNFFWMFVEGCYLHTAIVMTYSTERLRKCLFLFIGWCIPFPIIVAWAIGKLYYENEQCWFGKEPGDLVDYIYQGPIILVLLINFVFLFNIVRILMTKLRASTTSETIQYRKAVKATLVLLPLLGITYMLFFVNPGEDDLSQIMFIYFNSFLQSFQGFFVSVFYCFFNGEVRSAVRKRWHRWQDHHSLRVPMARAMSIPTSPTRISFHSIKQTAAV
T1 sequence (P24387 whole entry): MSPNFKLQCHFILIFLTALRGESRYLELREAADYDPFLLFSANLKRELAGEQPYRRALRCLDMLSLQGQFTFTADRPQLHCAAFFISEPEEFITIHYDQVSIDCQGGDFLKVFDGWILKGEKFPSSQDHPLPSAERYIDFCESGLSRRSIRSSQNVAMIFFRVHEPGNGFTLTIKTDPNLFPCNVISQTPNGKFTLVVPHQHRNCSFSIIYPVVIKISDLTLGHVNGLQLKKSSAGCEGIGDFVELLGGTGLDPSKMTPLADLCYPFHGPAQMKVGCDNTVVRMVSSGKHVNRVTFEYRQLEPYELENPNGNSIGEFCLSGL

[2] = target: T1, Corticotropin-releasing factor receptor 2/Corticotropin-releasing factor-binding protein; experiment: activators of CRF receptor 2 with binding protein – uHTS hits, confirmation (AID 602473); assay type: functional; settings: read-out: EC50_Mean
[3] = target: T2, Heat shock factor protein 1 (Mus musculus, UniProt P38532); experiment: inhibition of MG132-induced HSE-luciferase signal, confirmation, cell-based, NIH3T3, luminescence, dose retest (AID 2382); assay type: functional;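 also: NIH3T3 fibroblasts with HSF1-driven luciferase reporter stressed by proteasome inhibitor MG132; luminescence from HSF1-driven luciferase expression after 8 hours of MG132 stress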
T2 sequence (P38532 whole entry): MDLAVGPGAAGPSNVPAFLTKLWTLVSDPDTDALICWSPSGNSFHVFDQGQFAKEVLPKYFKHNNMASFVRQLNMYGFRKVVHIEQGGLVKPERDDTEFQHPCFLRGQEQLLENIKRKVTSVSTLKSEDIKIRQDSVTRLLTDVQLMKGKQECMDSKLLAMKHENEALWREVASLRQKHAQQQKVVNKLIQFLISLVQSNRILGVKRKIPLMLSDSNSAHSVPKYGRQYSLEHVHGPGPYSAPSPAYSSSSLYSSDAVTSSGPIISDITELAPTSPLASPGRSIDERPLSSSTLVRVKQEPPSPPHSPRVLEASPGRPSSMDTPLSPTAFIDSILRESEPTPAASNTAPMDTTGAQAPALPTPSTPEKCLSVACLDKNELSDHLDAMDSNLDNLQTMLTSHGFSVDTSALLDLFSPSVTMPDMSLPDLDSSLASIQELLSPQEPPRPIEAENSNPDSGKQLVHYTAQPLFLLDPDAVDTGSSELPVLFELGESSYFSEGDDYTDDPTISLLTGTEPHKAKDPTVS

[4] = tested on: Streptococcus sp. 'group A'; experiment: growth inhibition of control SK(-) GAS strain, dose response, counter-screen for streptokinase expression inhibitor project, luminescence, kanamycin, BacTiterGlo, confirmation (AID 1900); assay type: functional, organism-based
[5] = C. albicans growth with fluconazole, confirmation, fluorescence, retest (AID 2467); assay type: functional, cell-based
[6] = NIH-3T3 fibroblast cytotoxicity, dose response, cytotoxicity control, cell-based, fluorescence, Alamar Blue, secondary assay (AID 2327); assay type: functional;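 also: NIH-3T3 mouse fibroblasts cultured with fluconazole at 8 µg/mL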
[7] = tested on: Streptococcus; experiment: Group A Streptococcus viability loss, dose response, counter-screen for streptokinase expression inhibitor project, luminescence, BacTiterGlo (AID 1915); assay type: functional, organism-based;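 also: potency for reduction of bacterial viability or growth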
[8] = target: T3, Streptokinase A (Streptococcus pyogenes serotype M1, UniProt P10520); experiment: S. pyogenes streptokinase expression inhibitors, potency, dose response, plasminogen activation absorbance, OD405 (AID 1914); assay type: functional, Streptococcus pyogenes M1 GAS;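 also: secreted streptokinase activity via plasminogen activation per viability signal from cell pellet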
T3 sequence (P10520 whole entry): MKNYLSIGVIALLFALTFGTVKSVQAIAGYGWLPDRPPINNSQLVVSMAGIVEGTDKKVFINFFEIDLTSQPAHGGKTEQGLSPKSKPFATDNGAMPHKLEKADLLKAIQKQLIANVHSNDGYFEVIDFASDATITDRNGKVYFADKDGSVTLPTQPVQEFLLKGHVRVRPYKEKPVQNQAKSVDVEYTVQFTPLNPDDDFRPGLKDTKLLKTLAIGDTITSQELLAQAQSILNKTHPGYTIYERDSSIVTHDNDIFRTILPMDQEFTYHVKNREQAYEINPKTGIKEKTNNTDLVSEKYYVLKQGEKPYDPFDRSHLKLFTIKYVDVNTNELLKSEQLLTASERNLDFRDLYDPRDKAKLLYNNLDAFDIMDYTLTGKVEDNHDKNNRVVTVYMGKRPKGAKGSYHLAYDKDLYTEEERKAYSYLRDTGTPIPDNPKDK

[9] = inhibitors of intracellular T. cruzi replication, confirmation, NIH3T3 host cells, beta-gal luminescence (AID 2044); assay type: functional, cell-based;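 also: intracellular parasites grown in NIH/3T3 mouse fibroblasts as host cells; luminescent beta-galactosidase reporter signal from transgenic T. cruzi replicating inside host cells; inhibitors lower the luminescence signal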
[10] = cytotoxicity toward NIH3T3 fibroblasts, dose response, counter-screen, cell-based, ATP luminescence, mouse fibroblasts (AID 2010); assay type: functional;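 also: cells exposed to compound for about 90 hours before reading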
[11] = Luminescence Cell-Based Dose Response HTS to Identify Inhibitors of 5'UTR Stem-Loop Driven Prion Protein mRNA Translation in H4 Neuroglioblastoma Cells. [Related pubchem assays: 1827 (Project Summary), 1813 (Primary HTS)]; assay type: functional
[12] = inhibitors of SNCA 5'UTR-driven reporter translation, confirmation, H4 neuroglioma cells, luminescence (AID 1988); assay type: functional, cell-based
[13] = inhibitors of firefly luciferase expression or activity, dose response, H4 neuroglioma cells, luminescence (AID 1990); assay type: functional, cell-based
[14] = target: Glyceraldehyde-3-phosphate dehydrogenase (Homo sapiens, UniProt P04406)
Chain of Glyceraldehyde-3-phosphate dehydrogenase (P04406 whole entry): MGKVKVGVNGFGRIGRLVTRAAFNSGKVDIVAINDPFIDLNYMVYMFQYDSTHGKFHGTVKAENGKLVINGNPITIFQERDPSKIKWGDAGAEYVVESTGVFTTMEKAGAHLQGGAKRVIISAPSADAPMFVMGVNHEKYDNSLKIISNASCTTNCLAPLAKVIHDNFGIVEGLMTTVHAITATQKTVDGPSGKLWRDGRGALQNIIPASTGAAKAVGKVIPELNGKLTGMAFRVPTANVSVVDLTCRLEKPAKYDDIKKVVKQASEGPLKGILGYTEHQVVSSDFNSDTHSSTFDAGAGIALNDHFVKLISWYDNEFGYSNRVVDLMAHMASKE

[15] = Luminescence Cell-Based Dose Response HTS to Identify Activators of Luciferase Translation or Activity in H4 […] Cells. [Related pubchem assays: 1829 (Project Summary), 1814 (Primary HTS)]; assay type: functional
[16] = tested on: H4; experiment: Luminescence Cell-Based Dose Response HTS to Identify Activators of 5'UTR Stem-Loop Driven Prion Protein mRNA Translation in H4 Neuroglioblastoma Cells. [Related pubchem assays: 1829 (Project Summary), 1814 (Primary HTS)]; assay type: functional; settings: Homo sapiens
[17] = tested on: SN12K1; experiment: cells; assay type: functional; settings: Homo sapiens
[18] = tested on: P388/ADR; experiment: cells; assay type: functional; settings: Mus musculus
[19] = P. falciparum Dd2 growth inhibitors, dose response, SYBR Green, cherry-picked samples (AID 1159567); assay type: functional, cell-based

## COc1cc(-c2ccc3cc(OC)c(OC)c(OC)c3c2)cc(OC)c1OC
[1]
  IC50: > 47.1 µM (inactive)
[2]
  EC50: > 53 µM (inactive)

## CC(=O)C1=C(O)C(=O)N(Cc2cccnc2)C1c1ccc(O)cc1 (configuration not stated)
[3]
  EC50: > 195 µM (not active)

## N#Cc1ccc(CSC2=NCCN2)cc1
[1]
  IC50: > 47.1 µM (inactive)
[2]
  EC50: > 53 µM (inactive)

## CCOC(=O)C1CCN(C(=O)c2ccc3c(=O)n4nc(Nc5cc(C)ccc5C)sc4nc3c2)CC1
[4]
  EC50: 9.44 µM (active)
[5]
  EC50: 2.55 µM (active)
[6]
  EC50: > 150 µM (inactive)
[7]
  EC50: 37.4 µM (active)
[8]
  EC50: > 150 µM (not active)

## C=CCOc1ccn(C)c(=O)n1
[3]
  EC50: > 195 µM (not active)

## O=C(Cc1ccsc1)Nc1ccc(S(=O)(=O)C(F)F)cc1
[3]
  EC50: > 195 µM (not active)

## CCC(=O)Nc1ccc(NC(=O)c2oc3ccccc3c2C)cc1
[1]
  IC50: > 47.1 µM (inactive)
[2]
  EC50: > 53 µM (inactive)

## Cc1cc(C(=O)CN2CCC(C)CC2)c(C)n1-c1ccccc1F
[3]
  EC50: < 0.16 µM (active)
[9]
  EC50: 1.18 µM (active)
[10]
  EC50: > 60 µM (not active)

## Cc1cccc2c1Sc1ccc(Cl)cc1CC2N1CCNCC1 (configuration not stated)
[11]
  EC50: 116 µM (active)
[9]
  EC50: 3.13 µM (active)
[12]
  EC50: 11.7 µM (active)
[13]
  EC50: > 120 µM (not active)
[10]
  EC50: 12.9 µM (active)

## CC(C)C(=O)Nc1cccc(C(=O)Nc2ccccc2C(=O)O)c1
[11]
  EC50: > 120 µM (not active)
[12]
  EC50: > 120 µM (not active)
[13]
  EC50: 47.8 µM (active)

## O=C(NCc1csc(-c2cccs2)n1)c1ccccc1
[1]
  IC50: > 47.1 µM (inactive)
[2]
  EC50: > 53 µM (inactive)

## COc1cccc(N2C(=O)C(Cl)=C(N3CCN[C@H](C)C3)C2=O)c1
[14]
  IC50: > 50 µM (inconclusive)

## C#CCSc1nc(C)cc(C(=O)OCC)c1C#N
[1]
  IC50: > 47.1 µM (inactive)
[2]
  EC50: > 53 µM (inactive)

## CCOc1ccc(CNC(=O)c2ccc3nc(N4CCOCC4)sc3c2)cc1
[3]
  EC50: > 195 µM (not active)

## CN1CCc2c(sc3c2C(=O)NC(c2ccc(-c4ccc(Cl)cc4)o2)N3)C1 (configuration not stated)
[3]
  EC50: > 195 µM (not active)

## O=c1cccc2n1Cc1cc3ccccc3nc1-2
[15]
  EC50: 38.3 µM (active)
[16]
  EC50: 37.6 µM (active)

## Cc1cc(=O)oc2cc(OCC(=O)Nc3ccc(O)c(C(=O)O)c3)ccc12
[14]
  IC50: > 100 µM (not active)

## CC(=O)N1N=C(c2cccc([N+](=O)[O-])c2)CC1c1ccc(Br)cc1 (configuration not stated)
[14]
  IC50: > 100 µM (not active)

## Cc1cc2c(cc(C(=O)OCC(=O)NCc3ccco3)n2C)s1
[5]
  EC50: > 38 µM (not active)
[6]
  EC50: 22.4 µM (active)

## COCCNC(=O)C(OC(=O)c1cccs1)c1ccccc1 (configuration not stated)
[3]
  EC50: > 195 µM (not active)

## CN(c1ccccc1)c1ncccn1
[3]
  EC50: > 195 µM (not active)

## COc1ccc(-n2nc(C)cc2N)cc1
[3]
  EC50: > 195 µM (not active)

## O=C(NCc1ccccn1)c1ccc(Cn2c(=S)[nH]c3ccc(Br)cc3c2=O)cc1
[11]
  EC50: > 120 µM (not active)
[12]
  EC50: > 120 µM (not active)
[13]
  EC50: > 120 µM (not active)

## Cc1nc(NC(=O)C2CC2)sc1C(=O)Nc1ccccc1Cl
[15]
  EC50: 11.6 µM (active)
[16]
  EC50: 9.56 µM (active)

## CCc1cc[n+](CC(=O)Nc2ccc(Cl)cc2Cl)cc1
[3]
  EC50: > 195 µM (not active)

## CNC(=S)N(CCc1c(C)[nH]c2ccc(C)cc12)Cc1cc(OC)c(OC)c(OC)c1
[3]
  EC50: > 195 µM (not active)

## COc1cccc(N2CCN(C3=C(Cl)C(=O)N(c4ccnc(Cl)c4)C3=O)CC2)c1
[14]
  IC50: > 50 µM (inconclusive)

## O=C(Nc1cc2nn(-c3ccccc3)nc2cc1Cl)c1ccc([N+](=O)[O-])o1
[14]
  IC50: > 100 µM (not active)

## O=C(NCCCl)O/N=C/c1cccnc1
[17]
  GI50: > 100 µM (inactive)
[18]
  GI50: 52.5 µM (inactive)

## COc1cc2ccccc2cc1C(=O)N/N=C/c1ccc2c(c1)OCO2
[1]
  IC50: > 47.1 µM (inactive)
[2]
  EC50: > 53 µM (inactive)

## Cc1nnc(N/N=C/c2cc(C)n(-c3ccc(F)cc3)c2C)n1N
[3]
  EC50: 29.7 µM (active)

## CO[C@@H]1CN(C)C(=O)c2cc(NC(=O)Nc3ccc(C(F)(F)F)cc3)ccc2OC[C@@H](C)NC[C@@H]1C
[19]
  AC50: 5.92 µM (active)

## O=C(c1cnccn1)N1CC(=O)N2[C@@H](CO)[C@H](c3ccc(C#CCc4ccccc4)cc3)[C@@H]2C1
[19]
  AC50: 5.99 µM (active)

## O=S(=O)(Cc1ccccc1)N1[C@H](CO)[C@@H](c2ccccc2)C12CN(CCC(F)(F)F)C2
[19]
  AC50: 5.09 µM (active)

## C[C@H]1CN([C@@H](C)CO)C(=O)c2ccccc2-c2ccccc2CO[C@H]1CN(C)Cc1ccc(Oc2ccccc2)cc1
[19]
  AC50: 4.26 µM (active)

## C[C@H](CO)N1C[C@H](C)[C@H](CN(C)C(=O)Nc2ccc(N3CCCCC3)cc2)OCc2cnnn2CCCC1=O
[19]
  AC50: > 39 µM (inactive)

## CN(C)CC(=O)N1[C@H](CO)[C@H](c2ccc(C#CC3CCCCC3)cc2)[C@@H]1C#N
[19]
  AC50: 8.31 µM (active)

## N#C[C@@H]1[C@@H](c2ccccc2-c2ccccc2F)[C@@H](CO)N1C(=O)C1CCOCC1
[19]
  AC50: 24.2 µM (active)
